Assay results taken from US20160287666A1 (priority 2015, published 2016).
Ends that are not written are not given here.

Assays:
acute thermal pain [1] = settings: rat, in vivo
[2] = tested on: injury-induced pain (formalin); settings: rat, in vivo
[3] = tested on: CFA-induced thermal hyperalgesia; set-up: species or system mice; settings: mouse, in vivo; for CFA-induced thermal hyperalgesia (thermal latency, Hargreaves test): sc
acute thermal pain [4] = settings: rat, in vivo; remark: listed apart in the source
human Nav1.6 [5] = biological target: T1, human Nav1.6 (Homo sapiens, UniProt Q9UQD0); type: cell-based
T1 sequence (Q9UQD0 whole entry): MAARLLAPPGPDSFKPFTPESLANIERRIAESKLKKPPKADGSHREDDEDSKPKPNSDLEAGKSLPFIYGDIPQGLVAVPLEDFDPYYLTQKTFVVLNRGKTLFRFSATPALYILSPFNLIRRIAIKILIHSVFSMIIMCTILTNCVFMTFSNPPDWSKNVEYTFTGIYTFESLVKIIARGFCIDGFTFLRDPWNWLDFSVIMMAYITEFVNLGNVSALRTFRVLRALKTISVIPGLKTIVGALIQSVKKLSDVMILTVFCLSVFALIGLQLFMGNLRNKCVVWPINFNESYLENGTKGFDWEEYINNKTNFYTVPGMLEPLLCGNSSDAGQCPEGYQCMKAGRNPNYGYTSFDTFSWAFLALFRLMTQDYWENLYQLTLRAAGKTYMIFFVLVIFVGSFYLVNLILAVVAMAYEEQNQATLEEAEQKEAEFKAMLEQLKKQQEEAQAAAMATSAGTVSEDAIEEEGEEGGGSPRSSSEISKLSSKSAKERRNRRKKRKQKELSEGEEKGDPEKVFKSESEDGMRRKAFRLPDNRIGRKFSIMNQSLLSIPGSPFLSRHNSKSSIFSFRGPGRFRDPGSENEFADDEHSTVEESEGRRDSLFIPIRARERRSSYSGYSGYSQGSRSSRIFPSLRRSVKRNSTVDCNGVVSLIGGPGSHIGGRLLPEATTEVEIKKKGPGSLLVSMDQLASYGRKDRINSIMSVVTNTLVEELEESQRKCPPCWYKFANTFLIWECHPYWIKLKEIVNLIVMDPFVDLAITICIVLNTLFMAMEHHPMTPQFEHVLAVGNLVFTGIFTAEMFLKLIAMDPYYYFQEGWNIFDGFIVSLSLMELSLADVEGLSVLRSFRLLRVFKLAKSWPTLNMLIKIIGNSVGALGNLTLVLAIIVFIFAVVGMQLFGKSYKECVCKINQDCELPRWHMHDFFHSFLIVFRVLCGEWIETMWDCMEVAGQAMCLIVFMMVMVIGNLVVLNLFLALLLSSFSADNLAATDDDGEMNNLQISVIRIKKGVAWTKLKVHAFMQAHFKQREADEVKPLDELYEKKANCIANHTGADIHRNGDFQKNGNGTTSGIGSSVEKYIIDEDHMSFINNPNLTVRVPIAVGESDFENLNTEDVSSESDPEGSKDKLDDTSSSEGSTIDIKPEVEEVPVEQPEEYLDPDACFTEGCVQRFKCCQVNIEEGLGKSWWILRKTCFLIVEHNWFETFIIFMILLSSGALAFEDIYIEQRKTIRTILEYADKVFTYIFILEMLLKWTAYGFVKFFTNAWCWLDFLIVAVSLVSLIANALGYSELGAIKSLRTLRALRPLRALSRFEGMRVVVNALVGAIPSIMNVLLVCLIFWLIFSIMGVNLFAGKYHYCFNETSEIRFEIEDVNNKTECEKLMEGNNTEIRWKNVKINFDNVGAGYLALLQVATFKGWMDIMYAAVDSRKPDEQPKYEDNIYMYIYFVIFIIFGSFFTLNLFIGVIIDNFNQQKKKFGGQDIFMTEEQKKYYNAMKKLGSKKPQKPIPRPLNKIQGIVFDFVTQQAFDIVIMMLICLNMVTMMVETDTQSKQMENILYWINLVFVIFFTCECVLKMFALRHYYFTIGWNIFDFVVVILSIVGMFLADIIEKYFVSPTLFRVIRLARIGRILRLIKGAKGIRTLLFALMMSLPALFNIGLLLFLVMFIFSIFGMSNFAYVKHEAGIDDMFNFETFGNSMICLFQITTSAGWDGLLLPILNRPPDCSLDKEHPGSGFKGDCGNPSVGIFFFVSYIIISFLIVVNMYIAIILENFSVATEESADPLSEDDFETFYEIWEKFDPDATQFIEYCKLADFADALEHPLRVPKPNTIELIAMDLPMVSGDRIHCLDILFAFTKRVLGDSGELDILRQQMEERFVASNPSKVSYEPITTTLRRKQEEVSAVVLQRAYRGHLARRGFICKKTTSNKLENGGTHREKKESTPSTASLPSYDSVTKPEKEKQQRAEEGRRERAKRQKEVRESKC

human Nav1.7 (human) = human Nav1.7 (human) (UniProt Q15858); assay: cell-based or functional assay
human Nav1.7 = human Nav1.7 (Homo sapiens, UniProt Q15858, W1161R); type: cell-based
human Nav1.6 [6] = biological target: T1, human Nav1.6; assay: cell-based or functional assay
[7] = tested on: CFA-induced tactile allodynia; set-up: species or system mice; settings: mouse, in vivo
[8] = tested on: carrageenan-induced thermal hyperalgesia; set-up: species or system mice; settings: mouse, in vivo
thermal pain = tested on: thermal pain; set-up: species or system mice; settings: in vivo

In the case of “GPQCQKWMQTCDRERKCCEGFVCTLWCRKKLW-OH (cysteine pairing not given here) [NV1D3034]”, the “hot plate test latency” value (acute thermal pain [1]) is reported as “significant efficacy”, the formalin test flinches [2] is reported as “significant efficacy” and the “CFA-induced thermal hyperalgesia (thermal latency, Hargreaves test)” value [3] is reported as “completely reversed”. The “tail flick test latency” value (acute thermal pain [4]) was “significant efficacy”.

“GPQCQKWMQTCDRTRKCCEGFVCTLWCRKKLW-NH2 [NV1D3368-NH2]” was tested, and the “selectivity towards Nav1.7 compared to recombinant Protoxin-II” value (human Nav1.6 [5]) was “improved selectivity” and the CFA-induced thermal hyperalgesia [3] was “readily reversed”.

In the case of “GPQCQKWMQTCDRNRKCCEGFVCTLWCRKKLW-OH (cysteine pairing not given here) [NV1D3044]”, the “selectivity towards Nav1.7 compared to recombinant Protoxin-II” value (human Nav1.6 [5]) is reported as “improved selectivity”.

In the case of “GPQCQKWMQTCDAERKCCEGFSCTLWCKKKLW-OH (cysteine pairing not given here) [NV1D2974]”, the “selectivity towards Nav1.7 compared to recombinant Protoxin-II” value (human Nav1.6 [5]) is reported as “improved selectivity”.

wild type Protoxin-II (peptide) showed an IC50 (FLIPR assay, veratridine-induced membrane depolarization) (human Nav1.7 (human)) of 4 nM.

“GPQCQKWMQSCDRERKCCEGFVCTLWCRKKLW-OH (cysteine pairing not given here) [NV1D3359]” was tested, and the “selectivity towards Nav1.7 compared to recombinant Protoxin-II” value (human Nav1.6 [5]) was “improved selectivity”.

In the case of “GPQCQKWMQTCDRERKCCEGFVCTLWCRKKLWGSAPAPAPAPAPGSCCNCSSKWCRDHSRCC [NV1D3799]”, the “hNav1.7 QP % blk” value (human Nav1.7) is reported as 22.2% @ 30 nM.

“GPQCQKWMQTCDARRKCCEGFVCRLWCKKKLW-OH (cysteine pairing not given here) [NV1D3006]” was tested, and the “hNav1.7 QP % blk” value (human Nav1.7) was 52.3% @ 10 nM.

With “Ac-QCQKWMQTCDRERKCCEGFVCTLWCRKKLW-NH2 [(-GP) N-Ac-NV1D3034-NH2]” the “selectivity towards Nav1.7 compared to recombinant Protoxin-II” value (human Nav1.6 [5]) was “improved selectivity”.

With “GPQCQKWMQTCDAERKCCEGFVCRLWCKKKLW-NH2 [NV1D2775-NH2]” the “selectivity towards Nav1.7 compared to recombinant Protoxin-II” value (human Nav1.6 [5]) was “improved selectivity”.

For “GPACQKWMQTCDRNRKCCEGFVCTLWCRKKLW-OH (cysteine pairing not given here) [NV1D3541]”, the “selectivity towards Nav1.7 compared to recombinant Protoxin-II” value (human Nav1.6 [5]) was “improved selectivity”.

For “GPQCQKWMQTCDAERKCCEGFSCTLWCKKKLW-NH2 [NV1D2974-NH2]”, the “selectivity towards Nav1.7 compared to recombinant Protoxin-II” value (human Nav1.6 [5]) was “improved selectivity”.

In the case of “Ac-QCQKWMQTCDAERKCCEGFSCTLWCKKKLW-NH2 [(-GP) N-Ac-NV1D2974-NH2]”, the “selectivity towards Nav1.7 compared to recombinant Protoxin-II” value (human Nav1.6 [5]) is reported as “improved selectivity”.

With “GPQCQKWMQTCDRTRKCCEGFVCTLWCRKKLW-OH (cysteine pairing not given here) [NV1D3368]” the “selectivity towards Nav1.7 compared to recombinant Protoxin-II” value (human Nav1.6 [5]) was “improved selectivity” and the “CFA-induced thermal hyperalgesia (thermal latency, Hargreaves test)” value [3] was “fully reversed”.

For “GPQCQKWMQTCDRERKCCQGFVCTLWCRKKLW-OH (cysteine pairing not given here) [NV1D3388]”, the “selectivity towards Nav1.7 compared to recombinant Protoxin-II” value (human Nav1.6 [5]) was “improved selectivity”.

“GPQCQKWMQTCDRERKCCEGFVCTLWCRKKLW-NH2 [NV1D3034-NH2]” was tested, and the “selectivity towards Nav1.7 compared to recombinant Protoxin-II” value (human Nav1.6 [5]) was “improved selectivity”.

With “GPYCQKWMQTCDANRKCCEGFSCRLWCKKKLW-NH2 [NV1D3586-NH2]” the “selectivity towards Nav1.7 compared to recombinant Protoxin-II” value (human Nav1.6 [5]) was “improved selectivity”.

In the case of “GPQCQKWMQTCDRERKCCEGFVCTLWCRKKLW-NH-methyl [NV1D3034-NH-methyl]”, the “selectivity towards Nav1.7 compared to recombinant Protoxin-II” value (human Nav1.6 [5]) is reported as “improved selectivity” and the CFA-induced thermal hyperalgesia [3] is reported as “readily reversed”.

In the case of “GPQCQKWMQTCDRERKCCEGFVCTLWCRKKLW-NH-butyl [NV1D3034-NH-butyl]”, the “selectivity towards Nav1.7 compared to recombinant Protoxin-II” value (human Nav1.6 [5]) is reported as “improved selectivity”.

In the case of recombinant Protoxin-II (peptide), the IC50 (QPatch electrophysiology assay) (human Nav1.6 [6]) is reported as 6.2e-08 M and the ratio of IC50 for Nav1.6 to IC50 for Nav1.7 (QPatch) (human Nav1.6 [6]) is reported as 28 fold.

With “GPQCQKWMQTCDAERKCCEGFVCRLWCKKKLW-OH (cysteine pairing not given here) [NV1D2775]” the “tactile threshold returned to the control level, time post pump implantation” value [7] was no more than 48 h, the “time at which the effect reached the maximum, tactile test” value [7] was 8 h and the “hot plate test latency” value (acute thermal pain [1]) was “significant efficacy”. The “analgesia (thermal withdrawal latency) in the carrageenan study” value [8] was “significant analgesia”, the “analgesia in the mouse hotplate test (FIG. 8)” value (thermal pain) was “significant analgesia” and the hotplate latency (thermal pain; mouse) was “reached values near cut-off”. The formalin test flinches [2] was “significant efficacy”, the “anti-hyperalgesic effect first seen, time post-pump implantation” value [3] was 4 h and the “thermal latency returned to the control level, time post pump implantation” value [3] was no more than 48 h. For the same substance, the “time at which the effect reached the maximum, thermal test” value [3] was 8 h, the “CFA-induced thermal hyperalgesia (thermal latency, Hargreaves test)” value [3] was “reached values close to the cut-off” and the “tail flick test latency” value (acute thermal pain [4]) was “significant efficacy”.

With “GPACQKWMQTCDANRKCCEGFSCRLWCKKKLW-OH (cysteine pairing not given here) [NV1D3587]” the “selectivity towards Nav1.7 compared to recombinant Protoxin-II” value (human Nav1.6 [5]) was “improved selectivity”.

In the case of “GPYCQKWMQTCDANRKCCEGFSCRLWCKKKLW-OH (cysteine pairing not given here) [NV1D3586]”, the “selectivity towards Nav1.7 compared to recombinant Protoxin-II” value (human Nav1.6 [5]) is reported as “improved selectivity”.
